Data on 5 compounds can be found in US10538555B2, “Macrocyclic inhibitors of the PD-1/PD-L1 and CD80(B7-1)/PD-L1 protein/protein interactions” (BRISTOL-MYERS SQUIBB COMPANY, priority 2014, dated 2020).

*1 amine or outer side, *2 acyl side, *3 side chain or, on linkers, in order; H or OH if unused. Where a SMILES comes first, the peptide text is derived from it. Bridges are numbered along the chain shown (N, C = ends). [ ]: non-standard residue; d: D form. Trp(1-CH2COOH) = N[C@@H](Cc1cn(CC(=O)O)c2ccccc12)C(=O)O; Phe(3,4,5-F3) = N[C@@H](Cc1cc(F)c(F)c(F)c1)C(=O)O; d(cisHyp) = O=C(O)[C@H]1C[C@@H](O)CN1; Hyp = O=C(O)[C@@H]1C[C@@H](O)CN1; NMeF = CN[C@@H](Cc1ccccc1)C(=O)O; X1 = O=C([C@H]1COCCN1[*:1])[*:2]; dHyp = O=C(O)[C@H]1C[C@H](O)CN1; NMehSer = CN[C@@H](CCO)C(=O)O; NMeNle = CCCC[C@H](NC)C(=O)O; dPip = O=C(O)[C@H]1CCCCN1; NMeA = CN[C@@H](C)C(=O)O; Orn = NCCC[C@H](N)C(=O)O; Dab = NCC[C@H](N)C(=O)O; Dap = NC[C@H](N)C(=O)O; Sar = CNCC(=O)O

The target of the assay is T1, Human PD-L1/PD-1 (Homo sapiens, UniProt Q9NZQ7).
T1 construct: TVMV protease cleavage site (C); made in house; host or cells: HEK293T cells
T1 sequence (Q9NZQ7 with tags, fused parts or gaps): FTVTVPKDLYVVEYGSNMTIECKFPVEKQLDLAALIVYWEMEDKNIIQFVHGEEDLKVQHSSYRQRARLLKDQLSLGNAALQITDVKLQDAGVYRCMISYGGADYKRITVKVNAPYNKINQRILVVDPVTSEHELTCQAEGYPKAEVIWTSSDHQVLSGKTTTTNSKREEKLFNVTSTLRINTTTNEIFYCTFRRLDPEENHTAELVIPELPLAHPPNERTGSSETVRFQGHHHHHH
As to the kind of experiment: HTRF Human PD-L1/PD-1 binding assay (PD-1-Ig/PD-L1-His). As to conditions: PD-L1-His 10 nM, PD-1-Ig 20 nM; class symbol; read-out: HTRF Human PD-L1/PD-1 Binding Assay IC50 Range. In a few lines: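 HTRF competition using HEK293T-expressed human PD-1(25-167)-Ig at 20 nM and PD-L1(18-239)-His at 10 nM, compound incubated first with PD-L1 for 15 min, then with PD-1 for 15 min. Signal read as 665/620 nm ratio 30 min after adding Eu anti-Ig and APC anti-His antibodies.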
On the technique in general: TR-FRET usually uses a lanthanide donor and a delayed reading to cut background.
With `COCC[C@H]1C(=O)N2C[C@@H](O)C[C@@H]2C(=O)N[C@@H](CC(=O)O)C(=O)N[C@@H](C(C)C)C(=O)N(C)[C@@H](Cc2ccccc2)C(=O)N[C@@H](CCC(N)=O)C(=O)N2CCOC[C@@H]2C(=O)N[C@@H](Cc2c[nH]c3ccccc23)C(=O)N[C@@H](Cc2ccc(O)cc2)C(=O)N[C@@H](CCCN)C(=O)N[C@H](C(=O)NCC(N)=O)CSCC(=O)N[C@@H](Cc2cc(F)c(F)c(F)c2)C(=O)N(C)[C@@H](Cc2ccccc2)C(=O)N1C` [Example 9267] ({CH2CO}-[Phe(3,4,5-F3)][NMeF][NMehSer](Me)[dHyp]DV[NMeF]Q[X1]WY[Orn]CG-NH2; thioether N-13), the IC50 was in the range of 1 to 9.9 nM.
Under `CCCC[C@H]1C(=O)N2C[C@H](O)C[C@@H]2C(=O)N[C@@H](CC(=O)O)C(=O)N[C@@H](C(C)C)C(=O)N(C)[C@@H](Cc2ccccc2)C(=O)N[C@@H](Cc2ccc(O)cc2)C(=O)N2C[C@H](O)C[C@@H]2C(=O)N[C@@H](Cc2c[nH]c3ccccc23)C(=O)N[C@@H](Cc2ccc(O)cc2)C(=O)N[C@@H](CCCN)C(=O)N[C@H](C(=O)NCC(N)=O)CSCC(=O)N[C@@H](Cc2cc(F)c(F)c(F)c2)C(=O)N(C)[C@@H](Cc2ccccc2)C(=O)N1C` [Example 9323] ({CH2CO}-[Phe(3,4,5-F3)][NMeF][NMeNle][d(cisHyp)]DV[NMeF]Y[d(cisHyp)]WY[Orn]CG-NH2; thioether N-13) stands 1 to 9.9 nM.
Under `CCCC[C@H]1C(=O)N(C)[C@@H](CCCC)C(=O)N[C@@H](CCCN)C(=O)N[C@H](C(=O)NCC(N)=O)CSCC(=O)N[C@@H](Cc2ccc(OC)cc2)C(=O)N(C)[C@@H](C)C(=O)N[C@@H](CCN)C(=O)N2CCC[C@H]2C(=O)N[C@@H](CN)C(=O)N[C@@H](CCC(=O)O)C(=O)N2C[C@H](O)C[C@H]2C(=O)N[C@@H](Cc2c[nH]c3ccccc23)C(=O)N[C@@H](CCN)C(=O)N[C@@H](Cc2c[nH]c3ccccc23)C(=O)N1C` [Example 7092] ({CH2CO}-Y(Me)[NMeA][Dab]P[Dap]E[Hyp]W[Dab]W[NMeNle][NMeNle][Orn]CG-NH2; thioether N-14) stands 10 to 99.9 nM; under `CCCC[C@H]1C(=O)N(C)[C@@H](CCCC)C(=O)N[C@@H](CCC(=O)O)C(=O)N[C@H](C(=O)NCC(N)=O)CSCC(=O)N[C@@H](Cc2ccc(OC)cc2)C(=O)N(C)[C@@H](C)C(=O)N[C@@H](CC(=O)O)C(=O)N2CCC[C@H]2C(=O)N[C@@H](CN)C(=O)N[C@@H](CCCCN)C(=O)N2C[C@H](O)C[C@H]2C(=O)N[C@@H](Cc2c[nH]c3ccccc23)C(=O)N[C@@H](CCN)C(=O)N[C@@H](Cc2cn(CC(=O)O)c3ccccc23)C(=O)N1C` [Example 7148] ({CH2CO}-Y(Me)[NMeA]DP[Dap]K[Hyp]W[Dab][Trp(1-CH2COOH)][NMeNle][NMeNle]ECG-NH2; thioether N-14), 1 to 9.9 nM.
On to `CCCC[C@H]1C(=O)N(C)CC(=O)N[C@@H](CO)C(=O)N[C@@H](C(C)C)C(=O)N(C)[C@@H](Cc2ccccc2)C(=O)N[C@@H](Cc2ccc(O)cc2)C(=O)N2CCCC[C@@H]2C(=O)N[C@@H](Cc2c[nH]c3ccccc23)C(=O)N[C@@H](Cc2ccc(O)cc2)C(=O)N[C@@H](CC(C)C)C(=O)N[C@H](C(=O)NCC(N)=O)CSCC(=O)N[C@@H](Cc2ccccc2)C(=O)N(C)[C@@H](Cc2ccccc2)C(=O)N1C` [Example 10065] ({CH2CO}-F[NMeF][NMeNle][Sar]SV[NMeF]Y[dPip]WYLCG-NH2; thioether N-13), for which the IC50 was in the range of 10 to 99.9 nM.
